Assay results published in US11179471B2, “Peptide for cytosolic delivery” (priority 2017, dated 2021).
“Also recorded” adds a separate entry of the source. Read-outs that look alike come from different tables or passages of the source. Non-standard residues stand in square brackets, D forms with d. No end group written: not given here. hArg = N=C(N)NCCCC[C@H](N)C(=O)O; Aad = N[C@@H](CCCC(=O)O)C(=O)O

Assays:
[1] = tested on: mitochondrial membrane of HeLa cells
Source text: Mitochondrial membranes are considered to be rich in acidic lipid, as compared with cell membranes. Accordingly, the effects of the above peptides on a mitochondrial membrane were examined by JC-1 assay. A JC-1 reagent emits red (J-aggregate) fluorescence when the mitochondrial membrane is kept normal and the membrane potential is maintained; and the JC-1 reagent emits green (J-monomer) fluorescence when the mitochondrial membrane is damaged and the membrane potential is not kept normal. After HeLa cells were incubated with HAad, HA/E2, or L17E (40 μM) in α-MEM(−) for 1 hour, JC-1 assay was performed. The percentage of cells that emitted red fluorescence was assayed by flow cytometry.

[2] = Helix content from CD spectra in the presence of POPC/POPG (3:1) liposomes; type: physicochemical; details: result in words (FIG. 1)
Description: The helix content was calculated by the method of Y. H. Chen et al., 1972, based on 222-nm molar ellipticity ([…]) using the following formula: Helicity (%)=−([θ]222+2340)/30300*100.
The helix content of the peptides obtained in Example 1 (L17E, L17E/Q21E, L17Aad, HA/E1, HA/E2, and HAad) was calculated in the presence of POPC/POPG (3:1) liposomes by the method of Y. H. Chen et al., 1972, based on 222-nm molar ellipticity ([θ]222) using the following formula: Helix content (%)=−([θ]222+2340)/30300*100. Further, the CD spectra of the peptides were measured.

HeLa cells [3] = assay: Release of Alexa 488-dextran (10 kDa) into the cytoplasm, confocal microscopy; type: cell-based
Description: Cells; HeLa, peptides; 40 μM, Alexa 488-dextran (10 kDa); 200 μg/mL, treatment; 1 hr in α-MEM(−).
Cells; HeLa, peptides; 40 μM, Alexa 488-dextran (10 kDa); 200 μg/mL, treatment; 1 hr in α-MEM(−). The results are presented as means ±SE (n=3). **; p<0.01 (Student's t-test).
Cells; HeLa, peptides; 40 μM, Alexa 488-dextran (10 kDa); 200 μg/mL, treatment; 1 hr in α-MEM(−). Results are presented as means±SE (n=3). *; p<0.05, **; p<0.01, ***; p<0.001 (one-way ANOVA followed by the Tukey-Kramer honestly significant difference test (post-hoc test)).
In the presence of each peptide obtained in Example 1 (L17E, L17E/Q21E, HA/E1, HA/E2) (40 μM) or in the absence of the peptides (a control, no peptide), HeLa cells and Alexa 488-dextran (Molecular Probes, 10 kDa) (200 μg/mL) were treated in α-MEM(−) for 1 hour. The cells were washed, and observed with a confocal microscope.
In the presence of each peptide obtained in Example 1 (L17E, L17Aad) (40 μM) or in the absence of the peptides (a control, no peptide), HeLa cells and Alexa 488-dextran (Molecular Probes, 10 kDa) (200 μg/mL) were treated in α-MEM(−) for 1 hour. The cells were washed, and observed with a confocal microscope.
In the presence of each peptide obtained in Example 1 (HAad, HA/E2, L17Aad, L17E) (40 μM) or in the absence of the peptides (a control, no peptide), HeLa cells and Alexa 488-dextran (Molecular Probes, 10 kDa) (200 μg/mL) were treated in α-MEM(−) for 1 hour. The cells were washed, and observed with a confocal microscope.
When HeLa cells were incubated with Alexa 488-dextran (10 kDa) (200 μg/mL) as a macromolecular drug model in the presence of HAad (40 μM) in α-MEM(−) for 1 hour, Alexa 488-dextran release into about 75% of cells (cytosol) was observed. In contrast, when the incubation was performed in the presence of L17E, Alexa 488-dextran release into about 50% of the cells was observed.
HeLa cells, Alexa 488-dextran (Molecular Probes, 10 kDa) (200 μg/mL), and HAad; or HeLa cells, Alexa 488-dextran, (Molecular Probes, 10 kDa) (200 μg/mL), and HAad-homoR (20 μM) were treated in α-MEM(−) for 1 hour. The cells were washed, and observed with a confocal microscope.

NIH3T3 cells = assay: Intracellular release of dextran (10 kDa) in NIH3T3 cells; type: cell-based; details: peptide 40 μM, dextran (10 kDa), DEME(−) medium 1 hour
Description: Intracellular release of dextran is more difficult in NIH3T3 cells than in HeLa cells. NIH3T3 cells and dextran (10 kDa) were incubated in the presence of HAad, HA/E2, or L17E (40 μM each) in DEME(−) medium for 1 hour in the same manner as in Example 6.

HeLa cells [4] = assay: Intracellular release of Alexa 488-labeled human immunoglobulin (IgG, circa 160 kDa); type: cell-based; details: for cells in which intracellular release of human immunoglobulin was observed: α-MEM(−) 1 hour
Description: The cells and human immunoglobulin fluorescently labeled with Alexa 488 (IgG, circa 160 kDa) (500 μg/mL) were incubated in the presence of HAad, HA/E2, or L17E (40 μM each) in α-MEM(−) medium for 1 hour in the same manner as in Example 6.
The cells and human immunoglobulin fluorescently labeled with Alexa 488 (IgG, circa 160 kDa) (50 μg/mL: 1/10 the volume of Example 8) were incubated in the presence of HAad or L17E (40 μM each) in α-MEM(−) medium for 1 hour.
In the presence of HAad or L17E (20 μM each: ½ the amount used in Examples 8 and 9), the cells and human immunoglobulin fluorescently labeled with Alexa 488 (IgG, circa 160 kDa) (500 μg/mL: the same amount as in Example 8) were incubated in α-MEM(−) medium for 1 hour. […] (In FIG. 9, the intracellular release achieved by treatment with a low concentration of HAad was 2.5 times the release achieved by L17E. With respect to the peptide concentration required to detect the signal of intracellularly released human immunoglobulin in 35% of the cells, the concentration of L17E is 40 μM, and the concentration of HAad is 20 μM, which is half the concentration of L17E.)

[5] = tested on: HeLa cells transfected with a plasmid encoding loxP-DsRed-loxP-EGFP; assay: Genetic recombination assay by intracellular delivery of Cre protein (EGFP expression); type: cell-based; details: for proportion of GFP-expressing cells: Cre-His6 10 μM, peptide 40 μM, 1 hour, then 24 hours in α-MEM(+); for increase of genetic recombination as compared with no peptide administration: EGFP expression with no release peptide was 9%
Description: HeLa cells transfected with a plasmid encoding loxP-DsRed-loxP-EGFP, which were prepared in the same manner as in the Examples of PTL 2, were incubated with His-tag fusion Cre (Cre-Hiss) (10 μM) in the presence of HAad, HA/E2, or L17E (40 μM each) for 1 hour. This system was designed to express EGFP when intracellular release of Cre protein induces genetic recombination. […] The proportions of GFP-expressing cells in the cells treated with HAad, HA/E2, and L17E were 41%, 36%, and 30%, respectively. Considering the fact that the EGFP expression efficiency achieved with no administration of a release peptide was 9%, peptide administration of HAad, HA/E2, and L17E can be considered to increase genetic recombination by 32%, 27%, and […], respectively, as compared with no peptide administration.

[6] = Cell viability 24 hours after peptide treatment in the presence of serum (WST-8); type: cell-based; details: cells (cell line not given); peptide 10 μM, 20 μM and 40 μM; α-MEM(+) 24 hours; WST-8
Description: (§1) After the cells were incubated in the presence of HAad, HA/E2, or L17E (each 10 μM, 20 μM, and 40 μM) in α-MEM(+) medium for 24 hours, the cell viability (%) was evaluated by WST-8 assay (FIG. 14). The cell viability (%) after 24 hours with the use of any peptide at any concentration was almost 100%.

cells = assay: as above; type: cell-based; details: 10-40 μM; α-MEM(+) 24 hours
Description: as §1

HeLa cells [7] = assay: Nuclear accumulation of NLS-EGFP; type: cell-based; details: NLS-EGFP 10 μM; peptide 40 μM; α-MEM(−) 1 hour
Description: The cells and NLS-EGFP (10 μM) were incubated in the presence of HAad or L17E (40 μM each) in α-MEM(−) medium for 1 hour in the same manner as in Example 6. If NLS-EGFP is intracellularly released while maintaining its activity, localization of green fluorescence in the nuclei is observed. […] A high activity of HAad to release endosome-encapsulated substances was also confirmed in this system.

HeLa cells [8] = assay: Release of Alexa 488-dextran (10 kDa) into the cytoplasm, confocal microscopy; type: cell-based; details: Alexa 488-dextran (10 kDa) 200 μg/mL, 1 hour, read-out: peptide concentration required to detect the signal of intracellularly released Alexa 488-dextran in 50% of the cells
[9] = HeLa, 40 μM, 1 hour in α-MEM(−), Lipofectamine LTX/pCI complex overnight in α-MEM(+)

Row | Compound | effect on mitochondrial membrane (cells emitting red JC-1 fluorescence), in words [1] | helicity in the presence of an acidic lipid membrane [2] | endosome-encapsulated substance (Alexa 488-dextran) releasing activity, in words (HeLa cells [3]; peptide 40 μM, Alexa 488-dextran 200 μg/mL, 1 hr, compared with L17E) | cells in which intracellular release of dextran was observed (NIH3T3 cells) [%] | cells in which intracellular release of human immunoglobulin was observed (HeLa cells [4]; peptide 40 μM, IgG 500 μg/mL) [%] | proportion of GFP-expressing cells [5] [%] | increase of genetic recombination as compared with no peptide administration [5] [%] | effect on mitochondrial membrane (cells emitting red JC-1 fluorescence), in words [1, 9] | viability at 24 h [6] [%] | toxicity, in words (cells) | cells in which release of Alexa 488-dextran into the cytoplasm was observed (HeLa cells [3]; peptide 20 μM, Alexa 488-dextran (10 kDa) 200 μg/mL, 1 hour in α-MEM(−)) [%] | cells in which Alexa 488-dextran release into the cytosol was observed (HeLa cells [3]; peptide 40 μM, Alexa 488-dextran (10 kDa) 200 μg/mL, 1 hour in α-MEM(−)) | peptide concentration required to detect the signal of intracellularly released human immunoglobulin in 35% of the cells (HeLa cells [4]; IgG 500 μg/mL, 1 hour) [µM] | cells in which intracellular release of human immunoglobulin was observed (HeLa cells [4]; peptide 20 μM, IgG 500 μg/mL) | cells in which intracellular release of human immunoglobulin was observed (HeLa cells [4]; peptide 40 μM, IgG 50 μg/mL) | cells in which localization of NLS-EGFP in the nuclei was observed (HeLa cells [7]) [%] | EC50 (HeLa cells [8]) [µM]
1 | N#CC(C#N)=NNc1ccc(OC(F)(F)F)cc1 [FCCP, carbonyl cyanide-p-trifluoromethoxyphenylhydrazone, reference compound] | changed to emit green fluorescence | – | – | – | – | – | – | – | – | – | – | – | – | – | – | – | –
2 | H-IWLTALKFLGKAAAKAEAKQELSKL-NH2 [HA/E2, IWLTALX^5FLGX^6AAAX^7AEAX^8QELSX^9L-amide] | – | high helicity | higher endosomal content release activity than L17E; also recorded: Significant outflow; also recorded: equivalent to that of HA/E1; also recorded: significantly higher endosome-encapsulated substance releasing activity than L17E | ~25 | ~45 | 36 | 27 | no significant difference from the untreated case | ~100 | no significant toxicity | – | – | – | – | – | – | –
3 | H-IWLTALZFLGZAAAZAXAZQXLSZL-amide (H-IWLTAL[hArg]FLG[hArg]AAA[hArg]A[Aad]A[hArg]Q[Aad]LS[hArg]L-NH2; SMILES CC[C@H](C)[C@H](N)C(=O)N[C@@H](Cc1c[nH]c2ccccc12)C(=O)N[C@@H](CC(C)C)C(=O)N[C@H](C(=O)N[C@@H](C)C(=O)N[C@@H](CC(C)C)C(=O)N[C@@H](CCCCNC(=N)N)C(=O)N[C@@H](Cc1ccccc1)C(=O)N[C@@H](CC(C)C)C(=O)NCC(=O)N[C@@H](CCCCNC(=N)N)C(=O)N[C@@H](C)C(=O)N[C@@H](C)C(=O)N[C@@H](C)C(=O)N[C@@H](CCCCNC(=N)N)C(=O)N[C@@H](C)C(=O)N[C@@H](CCCC(=O)O)C(=O)N[C@@H](C)C(=O)N[C@@H](CCCCNC(=N)N)C(=O)N[C@@H](CCC(N)=O)C(=O)N[C@@H](CCCC(=O)O)C(=O)N[C@@H](CC(C)C)C(=O)N[C@@H](CO)C(=O)N[C@@H](CCCCNC(=N)N)C(=O)N[C@@H](CC(C)C)C(N)=O)[C@@H](C)O; listed as Lycosa carolinensis) [HAad-homoR] | – | – | – | – | – | – | – | – | – | – | 75 | – | – | – | – | – | –
4 | IWLTALKFLGKHAAKHEAKQQLSKL-NH2 [L17E, IWLTALX^5FLGX^6HAAX^7HEAX^8QQLSX^9L-amide, reference compound] | – | – | – | ~17 | ~35 | 30 | 22 | decreased slightly | ~100 | no significant toxicity | – | about 50% | 40 | about 15% | about 10% | ~56 | 40
